{"source": "paper PMC7022573", "about": "“Development of Level A In Vitro–Vivo Correlation for Electrosprayed Microspheres Containing Leuprolide: Physicochemical, Pharmacokinetic, and Pharmacodynamic Evaluation” (Pharmaceutics, 2020)", "key": {"[1]": {"settings": "rat, in vivo, sc; cited from earlier work", "method": "The IVIVC model development in this study was carried out using Berkeley Madonna (program version 8.3.14). Differences in PK profiles by formulations were evaluated by adding a release compartment to reflect the release characteristic."}, "[2]": {"assay": "Solvent selection for the drug phase: dissolution of leuprolide", "assay_type": "physicochemical", "source_text": "Solubility, viscosity, spray pattern, and density of polymer solution were investigated using four solvents (methylene chloride, acetonitrile, ethyl acetate, and acetone), and the optimal solvent was selected from among these. Parameters including dissolution of the leuprolide, miscibility with the solvent of polymer phase, drying degree of dry matter, and density of drug solution were investigated using three solvents (water, ethanol, and methanol), and the optimal solvent was selected."}}}
{"molecule": "CCNC(=O)[C@@H]1CCCN1C(=O)[C@H](CCCNC(=N)N)NC(=O)[C@H](CC(C)C)NC(=O)[C@@H](CC(C)C)NC(=O)[C@H](Cc1ccc(O)cc1)NC(=O)[C@H](CO)NC(=O)[C@H](Cc1c[nH]c2ccccc12)NC(=O)[C@H](Cc1c[nH]cn1)NC(=O)[C@@H]1CCC(=O)N1", "note": "[leuprolide]", "values": [{"measurement": "CL (clearance)", "setting": "[1]", "value": 514.46, "unit": "mL/h"}, {"measurement": "Vd (volume of distribution)", "setting": "[1]", "value": 487.40, "unit": "mL"}, {"measurement": "ka (absorption rate constant)", "setting": "[1]", "value": 16.67, "unit": "h⁻¹"}, {"measurement": "Dissolution of Leuprolide", "setting": "[2]; solvent ethanol", "value": "dissolves leuprolide slowly, and the drug easily precipitated"}, {"measurement": "Dissolution of Leuprolide", "setting": "[2]; solvent methanol", "value": "high solubility"}, {"measurement": "Dissolution of Leuprolide", "setting": "[2]; solvent water", "value": "high solubility"}]}
